Like-named read-outs stand apart in the source and are kept apart here.
Experiments:
[1] = test system: human embryonic lung (HEL) cells; details: for Cytotoxicity Cell Morphology MCC: HEL cell cultures, minimum cytotoxic concentration; for cytotoxicity toward uninfected cells: at concentration up to 100 μM
human cytomegalovirus = experiment: Antiviral activity against human cytomegalovirus, strain not given (AD-169 and Davis); assay type: cell-based; details: Human betaherpesvirus 5; range given for four compounds, strain not specified
murine leukemia L1210 = experiment: Cytostatic activity, inhibition of L1210 cell proliferation; assay type: cell-based; details: Mus musculus, L1210, 48 h, read-out: IC50 L1210
Experimental: (§1) The 50% cytostatic inhibitory concentration (IC50) causing a 50% decrease in cell proliferation was determined against murine leukemia L1210, human lymphocyte CEM, human cervix carcinoma HeLa and immortalized human dermal microvacsular endothelial cells (HMEC-1).
(§2) Murine leukemia (L1210), human T-lymphocyte (CEM), human cervix carcinoma (HeLa) and immortalized human dermal microvascular endothelial cells (HMEC-1) were suspended at 300,000–500,000 cells/mL of culture medium, and 100 μL of a cell suspension was added to 100 μL of an appropriate dilution of the test compounds in 200 μL-wells of 96-well microtiter plates. After incubation at 37 °C for two (L1210), three (CEM) or four (HeLa) days, the cell number was determined using a Coulter counter. The IC50 was defined as the compound concentration required to inhibit cell proliferation by 50%.

[2] = test system: human cytomegalovirus AD-169 strain; experiment: Antiviral activity against human cytomegalovirus AD-169 strain in HEL cell cultures; assay type: cell-based; details: Human betaherpesvirus 5, AD169
human T-lymphocyte (CEM) = experiment: Cytostatic activity, inhibition of CEM cell proliferation; assay type: cell-based; details: 72 h, read-out: IC50 CEM
Experimental: as §1, §2

TK+ VZV Oka strain = experiment: microbe, parasite or virus in culture; assay type: cell-based, varicella-zoster virus; details: Human alphaherpesvirus 3, HEL, read-out: Antiviral Activity EC50 TK+ VZV Strain
[3] = test system: human cytomegalovirus Davis strain; experiment: Antiviral activity against human cytomegalovirus Davis strain in HEL cell cultures; assay type: cell-based; details: Human betaherpesvirus 5
TK- VZV 07-1 strain = experiment: microbe, parasite or virus in culture; assay type: cell-based, varicella-zoster virus; details: for EC50: Human alphaherpesvirus 3, HEL, read-out: Antiviral Activity EC50 TK- VZV Strain; for activity toward TK- VZV strain: result in words
[4] = test system: human cervix carcinoma (HeLa); experiment: Cytostatic activity, inhibition of HeLa cell proliferation; assay type: cell-based; details: 96 h, read-out: IC50 HeLa
Experimental: as §1, §2

[5] = test system: immortalized human dermal microvascular endothelial cells (HMEC-1); experiment: Cytostatic activity, inhibition of HMEC-1 cell proliferation; assay type: cell-based; details: inhibition of cell proliferation by 50%
Experimental: as §1, §2

[6] = test system: L1210, CEM, HeLa and HMEC-1 cells; experiment: Cytostatic activity against the tested cell lines (L1210, CEM, HeLa, HMEC-1), summarised in text; assay type: cell-based; details: for inhibition of cell proliferation at the highest tested concentration: highest tested concentration 250 μM, L1210, CEM
Experimental: as §1, §2

[7] = test system: tobacco mosaic virus (TMV); set-up: method as in PMID 23962399; details: ref [30]; cited from earlier work
Vero cells = test system: Vero cells; set-up: method as in doi:10.1016/j.phytol.2015.02.007; details: ref [33]; cited from earlier work
influenza A virus = test system: influenza A virus; set-up: method as in PMID 26017319; details: ref [34]; cited from earlier work
[8] = test system: various cancer cell lines; set-up: method as in doi:10.1002/hlca.201200433, PMID 21495659; details: ref [31],[32]; cited from earlier work

| Compound | Cytotoxicity Cell Morphology MCC ([1]; Table 2 (VZV)) [μM] | IC50 (murine leukemia L1210) [µM] | IC50 (human T-lymphocyte (CEM)) [µM] | EC50 (TK+ VZV Oka strain) [µM] | EC50 (TK- VZV 07-1 strain) [µM] | IC50 [4] [µM] | IC50 [5] [µM] | further results |
| --- | --- | --- | --- | --- | --- | --- | --- | --- |
| CCOP(=O)(OCC)[C@H]1C[C@H](c2nc3ccccc3c(=O)n2Cc2ccccc2[N+](=O)[O-])ON1C (relative stereo) [trans-11c, Diethyl trans-(2-methyl-5-(3-(2-nitrobenzyl)-4-oxo-3,4-dihydroquinazolin-2-yl)isoxazolidin-3-yl)-phosphonate] | >100 | 87 ± 22 | 76 ± 9 | 46.5 | 100 | 97 | 92 ± 1 | EC50 (human cytomegalovirus): 27 to 45 µM; EC50 [2]: > 100 µM; EC50 [3]: 44.7 µM |
| CCOP(=O)(OCC)[C@H]1C[C@H](c2nc3ccccc3c(=O)n2Cc2ccc(F)cc2)ON1C (relative stereo) [trans-11h, Diethyl trans-(5-(3-(4-fluorobenzyl)-4-oxo-3,4-dihydroquinazolin-2-yl)-2-methylisoxazolidin-3-yl)-phosphonate] | 100 | 26 ± 1 | 30 ± 12 | 15.3 | > 20 | 58 ± 5 | 78 ± 1 | cytotoxicity toward uninfected cells [1]: without exhibiting cytotoxicity; activity toward TK- VZV strain (TK- VZV 07-1 strain): no activity |
| CCOP(=O)(OCC)[C@H]1C[C@H](c2nc3ccccc3c(=O)[nH]2)ON1C (relative stereo) [trans-11a, Diethyl trans-(2-methyl-5-(4-oxo-3,4-dihydroquinazolin-2-yl)isoxazolidin-3-yl)phosphonate] | – | > 250 | > 250 | – | – | > 250 | > 250 | inhibition of cell proliferation at the highest tested concentration [6]: did not inhibit cell proliferation |
| CCOP(=O)(OCC)[C@H]1C[C@H](c2nc3ccccc3c(=O)n2Cc2ccccc2F)ON1C (relative stereo) [trans-11f/cis-11f (90:10), Diethyl trans-(5-(3-(2-fluorobenzyl)-4-oxo-3,4-dihydroquinazolin-2-yl)-2-methylisoxazolidin-3-yl)-phosphonate] | 100 | 33 ± 7 | 29 ± 13 | 6.84 | > 20 | 76 ± 11 | 77 | cytotoxicity toward uninfected cells [1]: without exhibiting cytotoxicity; activity toward TK- VZV strain (TK- VZV 07-1 strain): no activity |
| O=c1[nH]c(=O)n([C@H]2C[C@H](O)[C@@H](CO)O2)cc1/C=C/Br [Brivudin, reference compound] | >100 | – | – | 0.019 | 25.6 | – | – | – |
| O=c1[nH]cc(F)c(=O)[nH]1 [5-Fluorouracil, reference compound] | – | – | – | – | – | – | – | IC50 (murine leukemia L1210; inhibition of cell proliferation by 50%, two days incubation): 0.33 ± 0.17 µM; IC50 (human T-lymphocyte (CEM); inhibition of cell proliferation by 50%, three days incubation): 18 ± 5 µM; IC50 ([4]; inhibition of cell proliferation by 50%, four days incubation): 0.54 ± 0.12 µM |
| CCOP(=O)(OCC)[C@H]1C[C@H](c2nc3ccccc3c(=O)n2Cc2ccccc2)ON1C (relative stereo) [trans-11b/cis-11b (90:10), Diethyl trans-(5-(3-benzyl-4-oxo-3,4-dihydroquinazolin-2-yl)-2-methylisoxazolidin-3-yl)phosphonate] | – | 49 ± 23 | 28 ± 4 | – | – | 82 ± 5 | 83 ± 16 | EC50 (human cytomegalovirus): 27 to 45 µM; EC50 [2]: 44.7 µM; EC50 [3]: > 20 µM |
| O=C(c1ccc(O)cc1)c1nc2ccccc2c(=O)[nH]1 [Compound 2] | – | – | – | – | – | – | – | melting point: 67 to 68 °C; inhibitory properties on the replication of tobacco mosaic virus (TMV) [7]: only slightly active |
| CCOP(=O)(OCC)[C@H]1C[C@H](c2nc3ccccc3c(=O)n2CC)ON1C (relative stereo) [trans-11k/cis-11k (97:3), Diethyl trans-(5-(3-ethyl-4-oxo-3,4-dihydroquinazolin-2-yl)-2-methylisoxazolidin-3-yl)phosphonate] | >100 | 101 ± 17 | 85 ± 13 | 38.8 | 41.6 | 97 ± 10 | 86 ± 11 | IC50 ([6]; range over L1210, CEM, read-out: IC50 towards the tested cell lines): 85 to 101 µM |
| O=c1[nH]c(-c2c[nH]c3ccccc23)nc2ccccc12 [Compound 3] | – | – | – | – | – | – | – | cytotoxicity against Vero cells (Vero cells): cytotoxic |
| CCOP(=O)(OCC)[C@H]1C[C@H](c2nc3ccccc3c(=O)n2C)ON1C (relative stereo) [trans-11j, Diethyl trans-(2-methyl-5-(3-methyl-4-oxo-3,4-dihydroquinazolin-2-yl)isoxazolidin-3-yl)phosphonate] | – | > 250 | > 250 | – | – | > 250 | > 250 | inhibition of cell proliferation at the highest tested concentration [6]: did not inhibit cell proliferation |
| O=c1[nH]c(-c2ccncc2)nc2ccccc12 [Compound 4] | – | – | – | – | – | – | – | activity against influenza A virus (influenza A virus): slight activity |
| CCOP(=O)(OCC)[C@H]1C[C@H](c2nc3ccccc3c(=O)n2Cc2ccc([N+](=O)[O-])cc2)ON1C (relative stereo) [trans-11e/cis-11e (90:10), Diethyl trans-(2-methyl-5-(3-(4-nitrobenzyl)-4-oxo-3,4-dihydroquinazolin-2-yl)isoxazolidin-3-yl)-phosphonate] | 100 | 59 ± 32 | 34 ± 12 | 34.2 | 42.9 | 76 ± 4 | 102 ± 3 | EC50 (human cytomegalovirus): 27 to 45 µM; EC50 [2]: 44.7 µM; EC50 [3]: 20 µM |
| Nc1nc(O)c2ncn(COC(CO)CO)c2n1 [Ganciclovir, reference compound] | – | – | – | – | – | – | – | Cytotoxicity Cell Morphology MCC ([1]; Table 3 (HCMV)): >350 μM; EC50 [2]: 10.5 µM; EC50 [3]: 0.63 µM |
| Nc1ccn(C[C@@H](CO)OCP(=O)(O)O)c(=O)n1 [Cidofovir, reference compound] | – | – | – | – | – | – | – | Cytotoxicity Cell Morphology MCC ([1]; Table 3 (HCMV)): >300 μM; EC50 [2]: 1.49 µM; EC50 [3]: 0.23 µM |
| O=c1[nH]c(Cc2ccc(O)cc2)nc2ccccc12 [Compound 1, 2-(4-hydroxybenzyl)quinazolin-4(3H)-one] | – | – | – | – | – | – | – | cytotoxicity toward various cancer cell lines [8]: significant cytotoxicity; inhibitory properties on the replication of tobacco mosaic virus (TMV) [7]: strong inhibitory properties |
| CCOP(=O)(OCC)[C@H]1C[C@H](c2nc3ccccc3c(=O)n2Cc2cccc(F)c2)ON1C (relative stereo) [trans-11g, Diethyl trans-(5-(3-(3-fluorobenzyl)-4-oxo-3,4-dihydroquinazolin-2-yl)-2-methylisoxazolidin-3-yl)-phosphonate] | – | 35 ± 12 | 26 ± 6 | – | – | 62 ± 9 | 74 ± 3 | EC50 (human cytomegalovirus): 27 to 45 µM; EC50 [2]: > 100 µM; EC50 [3]: 27.6 µM |
| CCOP(=O)(OCC)[C@H]1C[C@H](c2nc3ccccc3c(=O)n2Cc2ccc(F)cc2F)ON1C (relative stereo) [trans-11i/cis-11i (97:3), Diethyl trans-(5-(3-(2,4-difluorobenzyl)-4-oxo-3,4-dihydroquinazolin-2-yl)-2-methylisoxazolidin-3-yl)-phosphonate] | 100 | 26 ± 2 | 24 ± 8 | 9.44 | > 20 | 55 ± 10 | 67 ± 4 | cytotoxicity toward uninfected cells [1]: without exhibiting cytotoxicity; activity toward TK- VZV strain (TK- VZV 07-1 strain): no activity |
| O=c1c2ccccc2nc(-c2ccncc2)n1CCCn1ccnc1 [Compound 6] | – | – | – | – | – | – | – | activity against influenza A virus (influenza A virus): slight activity |
| CCOP(=O)(OCC)[C@H]1C[C@H](c2nc3ccccc3c(=O)n2Cc2cccc([N+](=O)[O-])c2)ON1C (relative stereo) [trans-11d/cis-11d (90:10), Diethyl trans-(2-methyl-5-(3-(3-nitrobenzyl)-4-oxo-3,4-dihydroquinazolin-2-yl)isoxazolidin-3-yl)-phosphonate] | – | 28 ± 11 | 21 ± 4 | – | – | 50 ± 4 | 58 | – |
| O=c1c2ccccc2nc(-c2ccncc2)n1CCCN1CCOCC1 [Compound 5] | – | – | – | – | – | – | – | activity against influenza A virus (influenza A virus): slight activity |

From publication PMC6273226, “New Isoxazolidine-Conjugates of Quinazolinones—Synthesis, Antiviral and Cytostatic Activity” (Molecules, 2016)
